Consider 5 compounds from ChEMBL document CHEMBL1201862, “PubChem BioAssay data set” (2004).

Active and inactive are the calls of the source. Some results are limits rather than exact numbers.

The subject of assay [1] is Vibrio harveyi. Put plainly: LuxS/LuxPQ-dependent luminescence inhibition, V. harveyi – dry powder, set 2, dose response (AID 493072). The format is functional, organism-based.
Assay [2] has as its system Vibrio harveyi. Put plainly: Quorum Sensing, LuxS, LuxPQ Measured in Microorganism System Using Plate Reader - 2035-01_Inhibitor_DoseNoFile_DryPowder_Activity. [Related pubchem assays (depositor defined):AID2106]. The format is functional, organism-based.
For assay [3], the target named is Cystic fibrosis transmembrane conductance regulator/Golgi-associated PDZ and coiled-coil motif-containing protein (Homo sapiens, UniProt P13569+Q9HD26). The experiment in a line: potency against CAL PDZ-peptide interaction – biochemical, fluorescence polarization, Cerulean-tagged CAL PDZ, cherry-picks, dose response (AID 504773). In general terms: Polarisation of emitted light reports the rotation of a fluorescent probe.

Assay [4] deals with Chaperone protein dnaK (Escherichia coli, UniProt C3TRK2). The experiment in a line: E. coli DnaK binders, calorimetric Kd – biophysical, isothermal titration calorimetry, beta-domain, full-length DnaK, orthogonal assay for DnaK modulator project, SAR follow-up (AID 1495).
In assay [5] the target is T1, Ubiquitin-conjugating enzyme E2 N (Homo sapiens, UniProt P61088).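 Note: Dose-response confirmation in a TR-FRET assay detecting UBC13-driven polyubiquitin chain formation, inhibition measured.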
T1 sequence (P61088 whole entry): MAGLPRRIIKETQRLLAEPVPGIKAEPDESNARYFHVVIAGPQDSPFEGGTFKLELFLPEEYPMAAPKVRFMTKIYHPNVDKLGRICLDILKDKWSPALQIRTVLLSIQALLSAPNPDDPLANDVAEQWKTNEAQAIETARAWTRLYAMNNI
The format is functional.

Assay [6] is described as follows: Cytotoxicity screening for potential Inhibitors of Bacterial Capsule Biogenesis. [Related pubchem assays (depositor defined):AID488970]. The format is functional.
For assay [7], the system named is H9c2. Put plainly: cells. The following applies: Rattus norvegicus, H9c2, Myocardium. The format is functional, cell-based.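 Note: confirmatory concentration-response retest of ultra-high-throughput screening hits for modulation of myocardial damage; cell death induced by hydrogen peroxide oxidative stress; compound pretreatment for 60 min then peroxide exposure for 2 h; potency is for protecting the cells against peroxide damage rather than for killing them.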
The test system of assay [8] is Streptococcus sp. 'group A'. The experiment in a line: Streptococcus pyogenes SK(-)GAS viability under kanamycin – luminescence, BacTiterGlo, confirmation, counter-screen for streptokinase expression inhibitor project, dose response (AID 1900). The format is functional, organism-based. As to conditions: read-out: EC50. (In general: A counterscreen serves to expose hits that act by an unwanted route or on another target.)

Assay [9] has as its target Tumor necrosis factor (Homo sapiens, UniProt P01375). Put plainly: analog potency on TNFa NF-kB signaling – cell-based, revised, SAR follow-up (AID 2337). The format is functional.
Assay [10] concerns the target Nucleotide-binding oligomerization domain-containing protein 1 (Homo sapiens, UniProt Q9Y239). The experiment in a line: blockers of NOD1 pathway activity – revised, SAR follow-up (AID 2333). The format is functional.
The subject of assay [11] is HEK293. Put plainly: cells. The following applies: Homo sapiens.
For assay [12], the target named is Nucleotide-binding oligomerization domain-containing protein 2 (Homo sapiens, UniProt Q9HC29). Put plainly: PubChem AID 2334. The format is functional.
Assay [13] relates to Streptococcus. Put plainly: GAS UMAA2166 growth inhibition – luminescence, BacTiterGlo, counter-screen for streptokinase expression inhibitor project, dose response (AID 1915).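 Note: potency for reduction of bacterial viability or growth.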 The format is functional, organism-based.
Assay [14] deals with T2, Streptokinase A (Streptococcus pyogenes serotype M1, UniProt P10520).
T2 sequence (P10520 whole entry): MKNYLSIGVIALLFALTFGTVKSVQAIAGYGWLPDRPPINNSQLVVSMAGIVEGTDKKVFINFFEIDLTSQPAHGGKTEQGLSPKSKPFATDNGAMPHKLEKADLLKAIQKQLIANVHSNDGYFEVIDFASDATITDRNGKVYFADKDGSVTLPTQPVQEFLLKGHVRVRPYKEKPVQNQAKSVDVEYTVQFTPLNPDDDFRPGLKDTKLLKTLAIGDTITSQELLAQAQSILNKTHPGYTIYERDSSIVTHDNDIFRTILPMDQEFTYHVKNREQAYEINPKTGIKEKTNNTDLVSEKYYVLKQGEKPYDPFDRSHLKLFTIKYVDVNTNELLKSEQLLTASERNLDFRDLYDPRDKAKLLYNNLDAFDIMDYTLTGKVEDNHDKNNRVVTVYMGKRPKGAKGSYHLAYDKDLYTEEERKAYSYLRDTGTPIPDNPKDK
The experiment in a line: viability-normalized secreted streptokinase activity reduction – plasminogen activation absorbance, OD405, dose response (AID 1914).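 Note: secreted streptokinase activity via plasminogen activation per viability signal from cell pellet.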 The format is functional, Streptococcus pyogenes M1 GAS.

Chain of Nucleotide-binding oligomerization domain-containing protein 1 (Q9Y239 whole entry, the tested form may be a part): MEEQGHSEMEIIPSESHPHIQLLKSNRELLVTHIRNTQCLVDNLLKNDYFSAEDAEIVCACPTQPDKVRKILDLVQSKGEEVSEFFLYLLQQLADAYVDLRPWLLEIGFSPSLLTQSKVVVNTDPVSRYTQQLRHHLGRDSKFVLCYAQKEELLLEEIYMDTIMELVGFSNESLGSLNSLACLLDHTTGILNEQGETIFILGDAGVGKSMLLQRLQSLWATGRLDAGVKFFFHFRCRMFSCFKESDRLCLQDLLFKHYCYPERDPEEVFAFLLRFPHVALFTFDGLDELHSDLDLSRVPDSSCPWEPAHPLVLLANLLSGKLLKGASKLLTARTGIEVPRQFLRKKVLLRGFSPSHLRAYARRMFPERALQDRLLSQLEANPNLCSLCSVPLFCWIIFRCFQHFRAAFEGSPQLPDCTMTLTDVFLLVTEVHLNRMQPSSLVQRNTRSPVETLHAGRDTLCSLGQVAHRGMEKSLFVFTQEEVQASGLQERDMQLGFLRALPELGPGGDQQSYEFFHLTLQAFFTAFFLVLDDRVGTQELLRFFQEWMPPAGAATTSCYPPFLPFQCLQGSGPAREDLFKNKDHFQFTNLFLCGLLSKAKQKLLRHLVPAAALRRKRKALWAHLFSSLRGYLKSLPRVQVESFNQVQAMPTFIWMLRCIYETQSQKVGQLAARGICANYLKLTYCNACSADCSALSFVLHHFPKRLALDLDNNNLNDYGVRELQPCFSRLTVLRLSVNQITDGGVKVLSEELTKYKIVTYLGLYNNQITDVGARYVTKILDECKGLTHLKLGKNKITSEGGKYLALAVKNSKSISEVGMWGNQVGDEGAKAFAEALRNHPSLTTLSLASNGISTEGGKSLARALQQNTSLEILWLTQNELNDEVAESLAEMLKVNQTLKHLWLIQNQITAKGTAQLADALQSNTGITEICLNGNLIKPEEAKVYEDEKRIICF
Chain of Tumor necrosis factor (P01375 whole entry, the tested form may be a part): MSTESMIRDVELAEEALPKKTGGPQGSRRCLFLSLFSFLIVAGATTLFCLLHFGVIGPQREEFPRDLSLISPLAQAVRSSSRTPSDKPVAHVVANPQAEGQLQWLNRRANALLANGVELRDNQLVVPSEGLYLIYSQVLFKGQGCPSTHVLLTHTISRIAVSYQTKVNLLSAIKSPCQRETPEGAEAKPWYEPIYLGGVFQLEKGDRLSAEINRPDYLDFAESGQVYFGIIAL
Chain of Nucleotide-binding oligomerization domain-containing protein 2 (Q9HC29 whole entry, the tested form may be a part): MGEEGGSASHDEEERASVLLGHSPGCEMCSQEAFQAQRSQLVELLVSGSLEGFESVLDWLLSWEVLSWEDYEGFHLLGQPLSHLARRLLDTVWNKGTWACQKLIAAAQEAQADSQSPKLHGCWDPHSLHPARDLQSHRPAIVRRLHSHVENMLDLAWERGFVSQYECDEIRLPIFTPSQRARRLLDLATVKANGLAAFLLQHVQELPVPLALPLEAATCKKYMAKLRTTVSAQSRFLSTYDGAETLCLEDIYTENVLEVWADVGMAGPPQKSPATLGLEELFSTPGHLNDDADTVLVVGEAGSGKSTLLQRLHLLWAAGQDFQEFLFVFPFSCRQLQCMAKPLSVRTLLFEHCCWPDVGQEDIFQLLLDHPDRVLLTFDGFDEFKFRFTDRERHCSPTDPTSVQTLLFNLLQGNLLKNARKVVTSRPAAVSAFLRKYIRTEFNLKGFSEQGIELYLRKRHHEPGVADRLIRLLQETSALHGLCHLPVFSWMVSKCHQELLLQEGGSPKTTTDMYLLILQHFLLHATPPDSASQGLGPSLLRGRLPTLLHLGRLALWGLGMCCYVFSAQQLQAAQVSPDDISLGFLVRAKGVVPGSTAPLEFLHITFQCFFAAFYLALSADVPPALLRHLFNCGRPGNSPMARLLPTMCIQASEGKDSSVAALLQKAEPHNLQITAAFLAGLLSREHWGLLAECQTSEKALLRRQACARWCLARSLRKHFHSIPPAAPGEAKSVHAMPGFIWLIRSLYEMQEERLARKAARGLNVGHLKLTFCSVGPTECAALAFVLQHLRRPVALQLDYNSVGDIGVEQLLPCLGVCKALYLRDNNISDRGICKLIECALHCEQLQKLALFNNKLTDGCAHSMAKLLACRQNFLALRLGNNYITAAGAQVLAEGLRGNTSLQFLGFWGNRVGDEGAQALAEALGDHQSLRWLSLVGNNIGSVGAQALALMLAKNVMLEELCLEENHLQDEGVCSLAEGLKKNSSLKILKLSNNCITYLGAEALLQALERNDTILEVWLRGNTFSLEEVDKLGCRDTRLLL
Chain of Chaperone protein dnaK (C3TRK2 whole entry): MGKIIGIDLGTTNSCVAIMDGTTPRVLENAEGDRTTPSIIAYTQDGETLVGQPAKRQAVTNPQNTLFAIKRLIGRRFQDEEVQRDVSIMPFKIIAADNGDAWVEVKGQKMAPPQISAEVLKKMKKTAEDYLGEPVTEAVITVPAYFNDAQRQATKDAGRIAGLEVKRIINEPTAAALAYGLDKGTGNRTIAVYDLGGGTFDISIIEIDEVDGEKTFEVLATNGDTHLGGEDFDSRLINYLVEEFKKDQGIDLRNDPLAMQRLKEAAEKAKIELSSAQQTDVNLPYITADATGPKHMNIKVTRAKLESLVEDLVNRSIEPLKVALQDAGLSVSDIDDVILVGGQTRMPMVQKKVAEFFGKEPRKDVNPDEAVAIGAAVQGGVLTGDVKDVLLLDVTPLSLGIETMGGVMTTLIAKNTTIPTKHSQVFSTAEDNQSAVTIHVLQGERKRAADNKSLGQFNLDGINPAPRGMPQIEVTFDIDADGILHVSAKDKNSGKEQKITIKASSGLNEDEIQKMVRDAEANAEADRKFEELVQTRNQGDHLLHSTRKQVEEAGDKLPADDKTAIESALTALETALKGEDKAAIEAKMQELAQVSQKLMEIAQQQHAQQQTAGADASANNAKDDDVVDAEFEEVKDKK
Chain of Cystic fibrosis transmembrane conductance regulator/Golgi-associated PDZ and coiled-coil motif-containing protein (P13569 whole entry, other chains not shown): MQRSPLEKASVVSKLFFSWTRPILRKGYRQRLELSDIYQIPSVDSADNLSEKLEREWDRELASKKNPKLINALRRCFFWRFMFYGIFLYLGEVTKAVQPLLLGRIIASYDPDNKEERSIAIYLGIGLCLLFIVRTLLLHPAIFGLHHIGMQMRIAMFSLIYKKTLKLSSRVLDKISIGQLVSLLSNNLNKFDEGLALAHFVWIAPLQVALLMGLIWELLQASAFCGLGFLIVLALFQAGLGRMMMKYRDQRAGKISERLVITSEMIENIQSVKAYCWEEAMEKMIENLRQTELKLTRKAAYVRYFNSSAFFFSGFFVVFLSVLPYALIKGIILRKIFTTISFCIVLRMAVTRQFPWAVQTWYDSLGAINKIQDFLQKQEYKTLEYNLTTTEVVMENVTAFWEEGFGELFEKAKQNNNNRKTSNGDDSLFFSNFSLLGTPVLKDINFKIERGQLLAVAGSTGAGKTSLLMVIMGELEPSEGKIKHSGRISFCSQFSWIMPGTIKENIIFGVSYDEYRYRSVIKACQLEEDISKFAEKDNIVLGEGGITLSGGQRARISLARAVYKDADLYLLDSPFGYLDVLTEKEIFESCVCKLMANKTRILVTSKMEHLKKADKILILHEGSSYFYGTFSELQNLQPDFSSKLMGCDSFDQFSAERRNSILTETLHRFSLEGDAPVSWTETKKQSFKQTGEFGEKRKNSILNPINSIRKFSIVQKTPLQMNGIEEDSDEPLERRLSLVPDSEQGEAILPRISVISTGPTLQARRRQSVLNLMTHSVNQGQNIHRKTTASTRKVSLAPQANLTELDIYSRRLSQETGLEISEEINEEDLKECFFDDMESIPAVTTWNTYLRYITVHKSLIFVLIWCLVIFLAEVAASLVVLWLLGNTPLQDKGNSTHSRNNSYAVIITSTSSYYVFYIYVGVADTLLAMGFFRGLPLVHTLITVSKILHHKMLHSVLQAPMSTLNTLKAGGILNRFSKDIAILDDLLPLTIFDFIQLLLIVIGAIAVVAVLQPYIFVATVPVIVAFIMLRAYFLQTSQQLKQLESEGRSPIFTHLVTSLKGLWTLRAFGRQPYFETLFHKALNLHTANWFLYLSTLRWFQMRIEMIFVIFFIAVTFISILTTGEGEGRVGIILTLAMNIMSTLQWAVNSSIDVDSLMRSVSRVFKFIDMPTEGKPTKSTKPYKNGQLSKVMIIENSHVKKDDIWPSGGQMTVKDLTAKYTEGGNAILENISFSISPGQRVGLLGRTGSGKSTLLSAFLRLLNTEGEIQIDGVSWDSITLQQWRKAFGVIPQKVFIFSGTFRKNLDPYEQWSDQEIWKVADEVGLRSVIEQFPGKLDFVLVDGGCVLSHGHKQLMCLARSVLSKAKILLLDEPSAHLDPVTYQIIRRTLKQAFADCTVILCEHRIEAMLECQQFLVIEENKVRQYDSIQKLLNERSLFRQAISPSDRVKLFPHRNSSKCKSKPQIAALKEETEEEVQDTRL

As for `Cc1cccc(NS(=O)(=O)c2ccc(Oc3ccccc3)cc2)n1`, the AC50 in assay [1] is 4.9 µM (active); in assay [1] (Vibrio harveyi) it was 5.99 µM (active); in assay [2], 2.4 µM (active).
Consider `COC(=O)[C@H]1[C@H]2C[C@@H]3c4[nH]c5cc(OC)ccc5c4CCN3C[C@H]2C[C@@H](OC(=O)/C=C/c2cc(OC)c(OC)c(OC)c2)[C@@H]1OC` [RESCINNAMINE], for which the AC50 in assay [3] was 142 µM (active).
For `Nc1ccc2c(ccn2C(=O)c2cccs2)c1`, the Kd in assay [4] was 3.4 µM (active).
With `Cc1cc(C)c(NC(=O)C[N+](C)(C)CC(O)COc2cccc3ccccc23)c(C)c1` (stereo not given), the IC50 in assay [5] was > 20 µM (inactive). Also, the CC50 in [6] is 15.6 µM (active).
Regarding `O=C(Nc1nc2ccccc2n1Cc1ccccc1)c1ccco1`, the IC50 in [7] was > 79 µM (inactive); in assay [9], > 20 µM (inactive); in assay [10], > 20 µM (inactive); in assay [11], > 20 µM (inactive); in [12], > 20 µM (inactive). Moreover, the values for the EC50 in [8], in [13] and in [14] were 3.48 µM (active), > 150 µM (not active) and > 150 µM (not active), respectively.

For orientation: AC50 means the midpoint of the concentration-response curve, whichever way the signal moves. Usually Kd stands for the concentration at which binding is half-saturated. The term IC50 denotes the point on the concentration scale where inhibition reaches its midpoint. The CC50 is the concentration giving 50% cytotoxicity. As usually defined, the EC50 is the midpoint of the concentration-response curve.
